For series [1] the following is noted: in vivo.
The subject of series [2] is mammalian plasma and tissue peptidases.

The record followed here is US3965260A, “Anti-inflammatory dipeptide” (McArthur; John N., priority 1975, dated 1976).

Each structure is given as a SMILES string. Peptide text beside a SMILES is read from it.

Molecule `N[C@H](Cc1ccccc1)C(=O)N[C@H](Cc1ccccc1)C(=O)O` [D-phenylalanyl-D-phenylalanine] (HELM PEPTIDE1{[dF].[dF]}$$$$V2.0) came in with a half life in series [1] not below 6 h. The “hydrolysis by mammalian plasma and tissue peptidases” value (“hydrolysis” for short) in series [2] is “resist rapid hydrolysis”.

Take `N[C@H](Cc1ccccc1)C(=O)N[C@H](Cc1c[nH]c2ccccc12)C(=O)O` [D-phenylalanyl-D-tryptophan] (HELM PEPTIDE1{[dF].[dW]}$$$$V2.0): the half life in series [1] was not below 6 h. Besides, the “hydrolysis” value in series [2] is recorded as “resist rapid hydrolysis”.

Regarding `N[C@H](Cc1c[nH]c2ccccc12)C(=O)N[C@H](Cc1ccccc1)C(=O)O` [D-tryptophanyl-D-phenylalanine] (HELM PEPTIDE1{[dW].[dF]}$$$$V2.0), the half life in series [1] was not below 6 h. In series [2], the “hydrolysis” value is “resist rapid hydrolysis”.

For the molecule `N[C@H](Cc1c[nH]c2ccccc12)C(=O)N[C@H](Cc1c[nH]c2ccccc12)C(=O)O` [D-tryptophanyl-D-tryptophan] (HELM PEPTIDE1{[dW].[dW]}$$$$V2.0), the half life in series [1] was not below 6 h. For the same molecule, the “hydrolysis” value in series [2] is “resist rapid hydrolysis”.
